# Measurements from ChEMBL document CHEMBL1126278, “New neplanocin analogues. 1. Synthesis of 6'-modified neplanocin A derivatives as broad-spectrum antiviral agents” (J Med Chem, 1992).
# Experiments:
# [1] = system: ESM; assay: Inhibitory effect on replication of RNA virus VSV in ESM cell line.; assay type: functional, cell-based
# [2] = system: MDCK; assay: cells; conditions: Canis lupus familiaris
# [3] = system: ESM; assay: Inhibitory effect on replication of DNA virus TK-HSV-1 (B2006) on ESM cell line.; assay type: functional, cell-based
# [4] = system: PRK; assay: Inhibitory effect on replication of DNA virus VV on PRK cell line.; assay type: functional, cell-based; conditions: Oryctolagus cuniculus
# [5] = system: HEL; assay: Inhibitory effect on replication of DNA virus VZV (YS) on HEL cell line.; assay type: functional, cell-based; conditions: Homo sapiens
# [6] = system: ESM; assay: Inhibitory effect on replication of DNA virus VV on ESM cell line.; assay type: functional, cell-based
# [7] = system: HEL; assay: Inhibitory effect on replication of DNA virus CMV (Davis) on HEL cell line.; assay type: functional, cell-based; conditions: Homo sapiens
# [8] = system: Vero; assay: Inhibitory effect on replication of RNA virus RNA synthesis in Vero cell line.; assay type: functional, cell-based; conditions: Chlorocebus sabaeus
# [9] = system: ESM; assay: Inhibitory effect on replication of DNA virus HSV-2 (G) in ESM cell line; assay type: functional, cell-based
# [10] = system: MDCK; assay: cells; conditions: Canis lupus familiaris; remark: listed apart in the source
# [11] = system: PRK; assay: Inhibitory effect on replication of DNA virus Cell morphology on PRK cell line; assay type: functional, cell-based; conditions: Oryctolagus cuniculus
# [12] = system: PRK; assay: Inhibitory effect on replication of RNA virus VSV in PRK cell line.; assay type: functional, cell-based; conditions: Oryctolagus cuniculus
# [13] = system: ESM; assay: Inhibitory effect on replication of RNA virus cell morphology in ESM cell line.; assay type: functional, cell-based
# [14] = system: Vero; assay: Inhibitory effect on replication of RNA virus JV in Vero cell line.; assay type: functional, cell-based; conditions: Chlorocebus sabaeus
# [15] = system: PRK; assay: Inhibitory effect on replication of RNA virus cell morphology in PRK cell line.; assay type: functional, cell-based; conditions: Oryctolagus cuniculus
# [16] = system: Vero; assay: Inhibitory effect on replication of RNA virus SV in Vero cell line.; assay type: functional, cell-based; conditions: Chlorocebus sabaeus
# [17] = system: ESM; assay: Inhibitory effect on replication of DNA virus HSV-1 (KOS) in ESM cell line; assay type: functional, cell-based
# [18] = system: Vero; assay: Inhibitory effect on replication of RNA virus TV in Vero cell line.; assay type: functional, cell-based; conditions: Chlorocebus sabaeus
# [19] = system: MT4; assay: Inhibitory effect on replication of RNA virus HIV-1 in MT-4 cell line.; assay type: functional, cell-based; conditions: Homo sapiens
# [20] = system: ESM; assay: Inhibitory effect on replication of DNA virus TK-HSV-1 (VMW 1837) on ESM cell line.; assay type: functional, cell-based
# [21] = system: Vero; assay: Inhibitory effect on replication of RNA virus PV-3 in Vero cell line.; assay type: functional, cell-based; conditions: Chlorocebus sabaeus
# [22] = system: HeLa; assay: cells; conditions: Homo sapiens
# [23] = system: Vero; assay: Inhibitory effect on replication of RNA virus measles on Vero cell line.; assay type: functional, cell-based; conditions: Chlorocebus sabaeus
# [24] = system: Vero; assay: Inhibitory effect on replication of RNA virus cell morphology in Vero cell line.; assay type: functional, cell-based; conditions: Chlorocebus sabaeus
# [25] = system: HEL; assay: Inhibitory effect on replication of DNA virus CMV (AD-169) on HEL cell line.; assay type: functional, cell-based; conditions: Homo sapiens
# [26] = system: HEL; assay: Inhibitory effect on replication of DNA virus Cell growth on HEL cell line.; assay type: functional, cell-based; conditions: Homo sapiens
# [27] = system: Vero; assay: Inhibitory effect on replication of RNA virus coxsB-4 in Vero cell line; assay type: functional, cell-based; conditions: Chlorocebus sabaeus
# [28] = system: Vero; assay: Inhibitory effect on replication of RNA virus SFV in Vero cell line; assay type: functional, cell-based; conditions: Chlorocebus sabaeus
# [29] = system: HeLa; assay: Inhibitory effect on replication of RNA virus coxsB-4 in HeLa cell line.; assay type: functional, cell-based; conditions: Homo sapiens
# [30] = Inhibitory effect on replication of DNA virus HSV-2 (G) in PRK cell line.; assay type: functional, cell-based; conditions: Oryctolagus cuniculus
# [31] = system: Vero; assay: Inhibitory effect on replication of RNA virus protein synthesis in Vero cell line.; assay type: functional, cell-based; conditions: Chlorocebus sabaeus
# [32] = system: Vero; assay: Inhibitory effect on replication of RNA virus reo-1 in Vero cell line.; assay type: functional, cell-based; conditions: Chlorocebus sabaeus
# [33] = system: MT4; assay: Inhibitory effect on replication of RNA virus cell growth in MT-4 cell line.; assay type: functional, cell-based; conditions: Homo sapiens
# [34] = Inhibitory effect on replication of DNA virus HSV-1 (KOS) in PRK cell line.; assay type: functional, cell-based; conditions: Oryctolagus cuniculus
# [35] = system: HEL; assay: Inhibitory effect on replication of DNA virus VZV (Oka) on HEL cell line.; assay type: functional, cell-based; conditions: Homo sapiens
# [36] = system: HEL; assay: Inhibitory effect on replication of DNA virus TK-VZV (07-1) on HEL cell line.; assay type: functional, cell-based; conditions: Homo sapiens
# [37] = system: HeLa; assay: Inhibitory effect on replication of RNA virus RSV in HeLa cell line; assay type: functional, cell-based; conditions: Homo sapiens
# [38] = system: ESM; assay: Inhibitory effect on replication of DNA virus Cell morphology on ESM cell line; assay type: functional, cell-based
# [39] = system: HeLa; assay: Inhibitory effect on replication of RNA virus VSV in HeLa cell line.; assay type: functional, cell-based; conditions: Homo sapiens
# [40] = system: HEL; assay: Inhibitory effect on replication of DNA virus TK-VZV (YSR) on HEL cell line.; assay type: functional, cell-based; conditions: Homo sapiens
# [41] = system: HeLa; assay: Inhibitory effect on replication of DNA virus RNA virus cell morphology in HeLa cell line.; assay type: functional, cell-based; conditions: Homo sapiens
# [42] = system: MDCK; assay: Inhibitory effect on replication of RNA virus cell morphology in MDCK cell line.; assay type: functional, cell-based; conditions: Canis lupus familiaris
# [43] = biological target: Adenosylhomocysteinase (Mus musculus, UniProt P50247); assay: Inhibitory effect against L929 Cell S-adenosyl-L-homocysteine hydrolase
# Sequence of Adenosylhomocysteinase (P50247 whole entry): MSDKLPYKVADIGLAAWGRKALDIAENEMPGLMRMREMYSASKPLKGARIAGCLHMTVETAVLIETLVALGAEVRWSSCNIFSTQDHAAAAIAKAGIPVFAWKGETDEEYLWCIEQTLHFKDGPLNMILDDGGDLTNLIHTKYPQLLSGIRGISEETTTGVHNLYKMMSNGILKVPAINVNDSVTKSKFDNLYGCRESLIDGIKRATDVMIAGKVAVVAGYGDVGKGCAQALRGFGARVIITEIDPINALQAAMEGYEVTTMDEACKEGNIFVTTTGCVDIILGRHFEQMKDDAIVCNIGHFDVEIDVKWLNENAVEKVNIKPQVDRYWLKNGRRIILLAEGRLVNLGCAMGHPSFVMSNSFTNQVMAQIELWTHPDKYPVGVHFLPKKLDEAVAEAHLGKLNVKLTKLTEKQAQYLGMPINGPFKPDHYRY
# [44] = system: HeLa; assay: Inhibitory effect on replication of RNA virus cell morphology in HeLa cell line.; assay type: functional, cell-based; conditions: Homo sapiens
# [45] = system: MT4; assay: Inhibitory effect on replication of RNA virus HIV-2 in MT-4 cell line.; assay type: functional, cell-based; conditions: Homo sapiens
smiles,measurement,setting,value
Nc1ncnc2c1ncn2[C@@H]1C=C(CO)[C@@H](O)[C@H]1O [NEOPLANOCIN A],IC50,[1],0.2 µg/mL
same,IC50,[2],> 20 µg/mL
same,IC50,[3],4 µg/mL
same,IC50,[4],0.2 µg/mL
same,IC50,[5],5 µg/mL
same,IC50,[6],0.2 µg/mL
same,IC50,[7],0.2 µg/mL
same,IC50,[8],0.21 µg/mL
same,IC50,[9],10 µg/mL
same,IC50,[10],> 20 µg/mL
same,IC50,[11],40 µg/mL
same,IC50,[12],0.2 µg/mL
same,IC50,[13],40 µg/mL
same,IC50,[14],0.4 µg/mL
same,IC50,[15],40 µg/mL
same,IC50,[16],> 40 µg/mL
same,IC50,[17],20 µg/mL
same,IC50,[18],0.4 µg/mL
same,IC50,[19],> 0.006 µg/mL
same,IC50,[20],7 µg/mL
same,IC50,[21],0.4 µg/mL
same,IC50,[22],> 40 µg/mL
same,IC50,[23],0.2 µg/mL
same,IC50,[24],10 µg/mL
same,IC50,[25],0.3 µg/mL
same,IC50,[26],16 µg/mL
same,IC50,[27],> 40 µg/mL
same,IC50,[28],> 40 µg/mL
same,IC50,[29],> 40 µg/mL
same,IC50,[30],> 40 µg/mL
same,IC50,[31],4.3 µg/mL
same,IC50,[32],0.4 µg/mL
same,IC50,[33],0.02 µg/mL
same,IC50,[34],> 40 µg/mL
same,IC50,[35],8 µg/mL
same,IC50,[36],5 µg/mL
same,IC50,[37],0.2 µg/mL
same,IC50,[38],40 µg/mL
same,IC50,[39],0.2 µg/mL
same,IC50,[40],2 µg/mL
same,IC50,[41],20 µg/mL
same,IC50,[42],20 µg/mL
CC1=C[C@@H](n2cnc3c(N)ncnc32)[C@H](O)[C@@H]1O,IC50,[2],> 100 µg/mL
same,IC50,[4],0.7 µg/mL
same,IC50,[5],2 µg/mL
same,IC50,[7],1.5 µg/mL
same,Ki,[43],150 nM
same,IC50,[8],1.7 µg/mL
same,IC50,[10],> 100 µg/mL
same,IC50,[11],> 400 µg/mL
same,IC50,[12],0.7 µg/mL
same,IC50,[14],0.4 µg/mL
same,IC50,[15],> 400 µg/mL
same,IC50,[16],> 200 µg/mL
same,IC50,[18],0.4 µg/mL
same,IC50,[19],> 1.5 µg/mL
same,IC50,[21],20 µg/mL
same,IC50,[22],> 200 µg/mL
same,IC50,[23],4 µg/mL
same,IC50,[24],40 µg/mL
same,IC50,[25],2.5 µg/mL
same,IC50,[44],> 400 µg/mL
same,IC50,[27],> 200 µg/mL
same,IC50,[28],> 200 µg/mL
same,IC50,[29],> 200 µg/mL
same,IC50,[30],> 200 µg/mL
same,IC50,[31],4.7 µg/mL
same,IC50,[32],0.7 µg/mL
same,IC50,[33],2.5 µg/mL
same,IC50,[34],> 200 µg/mL
same,IC50,[35],20 µg/mL
same,IC50,[36],4 µg/mL
same,IC50,[37],10 µg/mL
same,IC50,[45],> 1.5 µg/mL
same,IC50,[39],7 µg/mL
same,IC50,[40],10 µg/mL
same,IC50,[42],> 100 µg/mL
